Experiments:
[1] = system: C. albicans, C. guillermondii, C. intermedia, C. lipolytica, C. lusitanica, C. parapsilosis, C. rugosa and C. zeylanoides; conditions: U.S. Pat. No. 4,874,695, Table IV; cited from earlier work
[2] = system: C. parapsilosis; assay: Diagnosis from isolated colonies on gelose 2/5; format: cell-based, Candida parapsilosis; conditions: Table VI, 5 strains, gelose 2; further: key: -: none; +: weak; ++: moderate; +++: intense; ++++: very intense
[3] = system: T. glabrata; assay: Diagnosis from non-isolated colonies on gelose 2/5; format: cell-based, Torulopsis glabrata; conditions: 8 strains; further: key: -: none; +: weak; ++: moderate; +++: intense; ++++: very intense
[4] = system: C. guillermondii; assay: Diagnosis from non-isolated colonies on gelose 2/5; format: cell-based, Candida guillermondii; conditions: 1 strain; further: key: -: none; +: weak; ++: moderate; +++: intense; ++++: very intense
[5] = system: C. albicans; assay: Diagnosis from non-isolated colonies on gelose 2/5; format: cell-based, Candida albicans
[6] = system: C. tropicalis; assay: Diagnosis from isolated colonies on gelose 2/5; format: cell-based, Candida tropicalis; conditions: isolated colonies, gelose 2
[7] = system: T. glabrata; assay: Diagnosis from isolated colonies on gelose 2/5; format: cell-based, Torulopsis glabrata; conditions: isolated colonies, gelose 2; further: key: -: none; +: weak; ++: moderate; +++: intense; ++++: very intense
[8] = system: C. guillermondii; assay: Diagnosis from isolated colonies on gelose 2/5; format: cell-based, Candida guillermondii; conditions: Table VI, 2 strains, gelose 2; further: key: -: none; +: weak; ++: moderate; +++: intense; ++++: very intense
[9] = system: C. zeylanoides; assay: Diagnosis from non-isolated colonies on gelose 5; format: cell-based, Candida zeylanoides; conditions: Table IX, 1 strain, gelose 5, cycloheximide; further: key: -: none; +: weak; ++: moderate; +++: intense; ++++: very intense
[10] = system: C. cerevisiae; assay: Diagnosis from non-isolated colonies on gelose 5; format: cell-based; conditions: Table IX; non-isolated colonies, 1 strain; gelose 5, cycloheximide
Description: (§1) According to the afore-mentioned best mode of carrying out the invention, a culture medium containing the following ingredients is prepared; it is called gelose 5 below and is buffered to pH 6.0.
(§2) A mixture of several non-isolated strains of C. albicans, C. tropicalis, C. krusei, C. guillermondii, C. pseudotropicalis, C. parapsilosis, C. zeylanoides, C. ciferii, C. cerevisiae, Torulopsis glabrata and Trichosporon cutaneum was inoculated and incubated on the culture media according to Example 5, containing the substrate N-Ac-β-D-galactosaminide-PNP of the prior art or the substrate H-Pro-pNA.AcOH according to the invention.

[11] = system: C. ciferii; assay: Diagnosis from non-isolated colonies on gelose 5; format: cell-based; conditions: Table IX, 1 strain, gelose 5, cycloheximide; further: key: -: none; +: weak; ++: moderate; +++: intense; ++++: very intense
[12] = system: C. krusei; assay: Diagnosis from non-isolated colonies on gelose 2/5; format: cell-based, Candida krusei; conditions: non-isolated colonies
Description: (§3) According to the afore-mentioned best mode of carrying out the invention, a culture medium containing the following ingredients is prepared; it is called gelose 2 below and is buffered to pH 6.0.
as §1
A mixture of several non-isolated strains of C. albicans, C. tropicalis, C. krusei, C. guillermondii, C. pseudotropicalis, C. parapsilosis, Cryptococcus neoformaas, Torulopsis glabrata and Trichosporon cutaneum was inoculated and incubated on the culture media according to Examples 1 to 5, containing the substrate N-Ac-β-D-galactosaminide-PNP of the prior art or the substrate H-Pro-pNA.AcOH according to the invention. The results, which were obtained particularly with geloses 2 and 5, are collated in Table VIII below, where the TTC column relates to results of tests undertaken separately on a standard gelose medium containing TTC.
as §2

[13] = system: Tr. cutaneum; assay: Diagnosis from non-isolated colonies on gelose 2/5; format: cell-based, Trichosporon cutaneum; conditions: 2 strains
[14] = system: C. albicans; assay: Diagnosis from isolated colonies on gelose 2/5; format: cell-based, Candida albicans; conditions: isolated colonies, gelose 2; further: key: -: none; +: weak; ++: moderate; +++: intense; ++++: very intense
[15] = system: C. krusei; assay: Diagnosis from isolated colonies on gelose 2/5; format: cell-based, Candida krusei; conditions: isolated colonies, gelose 2
Description: as §3, §1
Several isolated strains of C. albicans, C. tropicalis, C. krusei, C. guillermondii, C. pseudotropicalis, C. parapsilosis, C. zeylanoides, T. glabrata and Trichosporon cutaneum were inoculated and incubated on the media of Examples 1 to 5. […] Part of the results obtained has been collated in Table VI below, where the TTC column relates to results of tests undertaken separately on a standard gelose medium containing TTC.
Several isolated strains of C. albicans, C. tropicalis, C. krusei, C. guillermondii and T. glabrata were inoculated and incubated on the media of Example 2 [containing either the substrate N-Ac-β-D-galactosaminide-PNP of the prior art, or the substrates H-L-PropNA.AcOH (specific for C. albicans), EM-L-Phg-L-ArgpNA.AcOH (specific for T. glabrata) and H-Gly-L-Pro-L-Arg-pNA.2AcOH (specific for C. krusei)]and of Example 5 (containing the substrate H-L-Pro-pNA.AcOH).

[16] = system: Cr. neoformans; assay: Diagnosis from non-isolated colonies on gelose 2/5; format: cell-based, Cryptococcus neoformans; conditions: Table VIII, 1 strain, gelose 2; further: key: -: none; +: weak; ++: moderate; +++: intense; ++++: very intense
[17] = system: C. zeylanoides; assay: Diagnosis from isolated colonies on gelose 2/5; format: cell-based, Candida zeylanoides; conditions: Table VI, 1 strain, gelose 2; further: key: -: none; +: weak; ++: moderate; +++: intense; ++++: very intense
[18] = system: C. tropicalis; assay: Diagnosis from non-isolated colonies on gelose 2/5; format: cell-based, Candida tropicalis; conditions: 1 strain; further: key: -: none; +: weak; ++: moderate; +++: intense; ++++: very intense
[19] = system: C. pseudotropicalis; assay: Diagnosis from isolated colonies on gelose 2/5; format: cell-based, Candida pseudotropicalis; conditions: Table VI, 2 strains, gelose 2; further: key: -: none; +: weak; ++: moderate; +++: intense; ++++: very intense
[20] = system: C. parapsilosis; assay: Diagnosis from non-isolated colonies on gelose 2/5; format: cell-based, Candida parapsilosis; further: key: -: none; +: weak; ++: moderate; +++: intense; ++++: very intense
[21] = system: C. pseudotropicalis; assay: Diagnosis from non-isolated colonies on gelose 2/5; format: cell-based, Candida pseudotropicalis; further: key: -: none; +: weak; ++: moderate; +++: intense; ++++: very intense
[22] = system: Tr. cutaneum; assay: Diagnosis from isolated colonies on gelose 2/5; format: cell-based, Trichosporon cutaneum; conditions: Table VI, 1 strain, gelose 2; further: key: -: none; +: weak; ++: moderate; +++: intense; ++++: very intense
[23] = system: N-acetyl-β-D-glucosaminidase; conditions: Casal et al. 1983; Polachek et al. 1987; cited from earlier work
[24] = Table IX, gelose 5, cycloheximide
[25] = Table IX, 1 strain, gelose 5, cycloheximide

O=C(Nc1ccc([N+](=O)[O-])cc1)[C@@H]1CCCN1 [H-L-Pro-pNA]
sensitivity towards strains of Candida [1]: sensitive towards several strains of Candida

CC(=O)N[C@H]1[C@H](Oc2ccc([N+](=O)[O-])cc2)O[C@H](CO)[C@H](O)[C@@H]1O [NAc-D-galactosaminide-PNP, N-Ac-β-D-galactosaminide-PNP, reference compound]
Reading at t = 24 h [2]: - | Reading at t = 24 h [3, 24]: - | Reading at t = 24 h ([3]; Table VIII, gelose 2): - | Reading at t = 24 h [4, 24]: - | Reading at t = 24 h ([4]; Table VIII, gelose 2): - | Reading at t = 24 h ([5]; Table IX, 89 strains, gelose 5, cycloheximide): ++++ and negative for 2 out of 89 strains | Reading at t = 24 h ([5]; Table VIII, 13 strains, gelose 2): ++++ | Reading at t = 24 h ([6]; Table VI, 4 strains): 3 gave the result - and 1 the result ++ | Reading at t = 24 h ([6]; Table VII, 9 strains): positive (++) for only 1 of the 9 strains tested and negative | Reading at t = 24 h ([7]; Table VI, 4 strains): - | Reading at t = 24 h ([7]; Table VII, 9 strains): - | Reading at t = 24 h [8]: - | Reading at t = 24 h [9]: - | Reading at t = 24 h [10]: - | Reading at t = 24 h [11]: - | Reading at t = 24 h [12, 25]: - | Reading at t = 24 h ([12]; Table VIII, 6 strains, gelose 2): - | Reading at t = 24 h [13, 24]: - | Reading at t = 24 h ([13]; Table VIII, gelose 2): - result for 1 strain and +++ result for the other strain | Reading at t = 24 h ([14]; Table VI, 10 strains): ++++ | Reading at t = 24 h ([14]; Table VII, 6 strains): +++ | Reading at t = 24 h ([15]; Table VI, 4 strains): - | Reading at t = 24 h ([15]; Table VII, 6 strains): - | Reading at t = 24 h [16]: - | Reading at t = 24 h [17]: - | Reading at t = 24 h [18, 24]: - | Reading at t = 24 h ([18]; Table VIII, gelose 2): - | Reading at t = 24 h [19]: - | Reading at t = 24 h [20, 25]: - | Reading at t = 24 h ([20]; Table VIII, 2 strains, gelose 2): - | Reading at t = 24 h ([21]; Table IX, 2 strains, gelose 5, cycloheximide): - | Reading at t = 24 h ([21]; Table VIII, 1 strain, gelose 2): - | Reading at t = 24 h [22]: ++

CC(=O)N[C@H]1[C@H](Oc2ccc3ccccc3c2)O[C@H](CO)[C@@H](O)[C@@H]1O [β-naphthyl-N-acetyl-β-D-glucosaminide]
reaction with isolated strains [23]: positive reaction
